We go through 2 compounds from paper PMC10481538, “Bioanalytical method validation and application to a phase 1, double-blind, randomized pharmacokinetic trial of a standardized Centella asiatica (L.) Urban water extract product in healthy older adults” (Frontiers in Pharmacology, 2023).

“And” between values parts separate entries of the source, which are not always exact repeats. Equal values may be shown once. Read-outs that look alike come from different tables or passages of the source.

The nature of one data set: clinical. Conditions: both, human, in vivo, po. As to the method: (§1) To each sample of participant plasma or urine, A. aerogenes sulfatase (2.5 µL; 10–20 units/mL), and E. coli glucuronidase (2.5 µL; ∼5,000–50,000 units/mL) were used to release the analytes from their sulfate and β-D-glucuronic acid esters (Phase II metabolites). For calibration and validation samples, aqueous glycerol (5 µL) was added to mimic the enzymatic hydrolysis. For all analyses, 1% ascorbic acid (10 µL) was added prior to sample work up to limit oxidation. Samples were incubated (37°C) for 20 min and placed on ice to halt enzymatic activity. […] The supernatant was filtered (0.22 µm spinfilter) at 10,000 g for 5 min at 4°C and used for analysis. To optimize peak shape during analysis, the concentration of organic solvent (sample filtrate) was adjusted to a 60:40 ratio with HPLC grade water for TT analysis and a 90:10 ratio with 1% aqueous formic acid for CQA analysis.
(§2) HPLC-MS/MS was performed at the Oregon Health & Science University’s (OHSU) Bioanalytical Shared Resource/Pharmacokinetics Core (Portland, OR, United States). […] Chromatographic separation was achieved using a Poroshell 120 EC18 column (3 mm id × 50 mm; 2.7 µ) and a Poroshell ultra high-performance liquid chromatography (UHPLC) guard column (3.0 mm i.d. Å∼ 5 mm, 2.7 μ) (Agilent, Santa Clara, CA, United States). The injection volume was 20 μL and flow rate was 0.42 mL/min. Gradient elution was performed using a mobile phase of solvent A (water containing 10 mM ammonium acetate and 0.02% ammonium hydroxide; pH 8.5) and solvent B (methanol). […] Chromatographic separation was achieved using a Zorbax Eclipse plus C8 Rapid resolution (4.6 i.d. Å∼ 150 mm, 3.5 μ) column with a Zorbax Eclipse plus C8 Rapid resolution (4.6 i.d. Å∼ 12.5 mm, 5 μ) guard column (Agilent, Santa Clara, CA, United States). The injection volume was 5 μL and flow rate of 0.8 mL/min. Gradient elution was performed using a mobile phase of solvent A (water containing 0.05% v/v acetic acid) and solvent B (acetonitrile with 0.05% v/v acetic acid).
(§3) Briefly, two in-person study visits occurred a minimum of two weeks and a maximum of four weeks apart in which participants orally consumed 2 or 4 g of CAP (in a randomized order) on an empty stomach. Total study duration was eight weeks including follow-up adverse event monitoring. All study procedures were identical for each visit except for the CAP dose administered. Randomization (to prevent tolerance effects) was performed using an arm equivalence design by the OHSU Research Pharmacy. All study personnel were blind to randomization allocation until all data analysis had been finalized. […] Participants fasted for 10 h, excluding water, prior to each study visit and for 2 h after consuming the study intervention to standardize gastrointestinal transit time and minimize food effects. During study visits, participants were provided low-phytochemical snacks and meals by the OCTRI CTRC’s Bionutrition Unit devoid of the foods outlined in Section 2.5. At each study visit, a peripheral intravenous catheter was placed in the arm to allow for repeat blood sampling. Prior to CAP intake, 20 mL of baseline blood and 50 mL of baseline urine were collected. […] Plasma aliquots (2 mL) were frozen and stored at -80°C until analysis. […] A 50 mL aliquot was retained and frozen at −80°C for renal excretion analysis.
(§4) Sample preparation and analysis: Plasma and urine sample preparation and analyte quantification by LC-MS/MS were performed in duplicate for each time point and visit (Sections 2.2–2.4). Due to the possibility of residual interference from the participant’s diet and unique, individual matrix effects, calibration curves were generated for each participant using their baseline plasma collected at the corresponding visit.

The conditions of data set [1]: older adults on cholinesterase inhibitors, ref Wright et al., 2022, cited from earlier work.
The conditions of data set [2]: cited from earlier work; for Cmax: Songvut et al., 2021.
For data set [3] the following is noted: cited from earlier work.
A short description of data set [4]: Analyte storage stability in human urine. Conditions: condition 2 freeze-thaw, high concentration.
Protocol: (§5) Analytes were mixed with 50 µL of charcoal treated plasma (n = 5) or urine (n = 5) and placed in each of the following storage conditions: 1) long-term storage (two weeks at −80°C); 2) three freeze-thaw cycles during a two-week period stored at −80°C; 3) 4°C for 24 h; and 4) fresh preparation for same day analysis. All samples were processed together for analysis. Calibration curves generated from storage condition 4 samples were used to determine the concentration of analyte present in each storage condition. The percent difference from samples in condition 4 was used to determine stability.
The nature of data set [5]: Analyte storage stability in human plasma. The following applies: condition 2 three freeze-thaw cycles, low concentration.
Protocol: as §5
For data set [6] the following is noted: in vivo, po. As to the method:
as §1, §2, §3, §4

For data set [7] the following is noted: human, 2 weeks.
Protocol: as §5

Turning to `C[C@H]1[C@H](C)CC[C@]2(C(=O)O)CC[C@]3(C)C(=CC[C@@H]4[C@@]5(C)C[C@@H](O)[C@H](O)[C@@](C)(CO)[C@@H]5[C@H](O)C[C@]43C)[C@H]12` [MA, madecassic acid], the highest concentration (Cmax) in “clinical” is 107 to 197 ng/mL; in “clinical” (2 g) it was 210 nM and 107 ng/mL; in the data set “clinical” (4 g), 390 nM and 197 ng/mL; in data set [1] (2 g CAP) it was 38 ng/mL; in data set [1] (4 g CAP), 63 ng/mL; in data set [2] (ECa 233 250 mg, ref Songvut et al., 2019), 40 ng/mL. Moreover, the Cmax in data set [2] (ECa 233 500 mg, ref Songvut et al., 2019) was 52 ng/mL; in data set [2] (read-out: Cmax (molar), ECa 233 250 mg, ref Songvut et al., 2019), 80 nM; in data set [2] (read-out: Cmax (molar), ECa 233 500 mg, ref Songvut et al., 2019), 100 nM. For the same compound, the Tmax was 2.2 to 2.8 h in “clinical”; 2.4 h in the data set “clinical” (2 g); 2.7 h in the data set “clinical” (4 g); 1.5 h in data set [2] (encapsulated ECa 233, healthy adults, ref Songvut et al., 2019); 4 to 4.5 h in data set [3] (capsular form, ref Grimaldi et al., 1990, Leng et al., 2013, Wright et al., 2022). Moreover, the half-life in the data set “clinical” (2 g) was 9.2 h; in “clinical” (4 g), 6.7 h. The “Stability, percent of nominal concentration” value is given as 80% in data set [4] and 100% in data set [5].
For the compound `C[C@H]1[C@H](C)CC[C@]2(C(=O)O)CC[C@]3(C)C(=CC[C@@H]4[C@@]5(C)C[C@@H](O)[C@H](O)[C@@](C)(CO)[C@@H]5CC[C@]43C)[C@H]12` [AA, asiatic acid], the T1/2 in “clinical” is 4.9 (1.3) hr. Also, the Tmax in “clinical” was 2.8 (0.2) hr; in “clinical” (Tmax), 2.2 h; in “clinical” (Tmax, range over both doses), 2.2 to 2.8 h; in data set [2] (human, in vivo), 1.5 h; in data set [3] (in vivo) it was 4 to 4.5 h. Moreover, the Cmax in “clinical” (Cmax, range over both doses) was 174 to 372 ng/mL; in data set [1] (2 g CAP), 123 ng/mL; in data set [1] (4 g CAP), 259 ng/mL. The half-life in “clinical” (T1/2) is 4.1 h. For the same compound, in data set [6], the “Total urinary excretion (12 hr)” value is “Not detected”. The “Stability, percent of nominal concentration” value in data set [7] was 111%.

A word on the Cmax: it is the highest concentration seen after dosing. As usually defined, the half-life is the time in which the quantity being followed falls by half. Higher therefore signals slow loss.
